Test results from article PMC10609873, “Antidiabetic, Antihyperlipidemic, and Antioxidant Evaluation of Phytosteroids from Notholirion thomsonianum (Royle) Stapf” (Plants, 2023).
≈ marks a conversion by molar mass, not a printed value.

Experiments:
[1] = tested on: alloxan-induced diabetic rats; test: vital organ weights of fasting rats after treatment; assay type: in vivo; settings: after the 28-day experiment; NtSt01 1.0 mg/kg, glibenclamide 0.5 mg/kg
Excerpt: The experimental rats were purchased from the Breeding House of National Institute Health, Islamabad, Pakistan. The average weights of these rats ranged from 220 to 250 g. The animals were handled as per the guidelines of the University of […] animals By-Laws 2008 (Scientific Procedure Issue I) under the approval of the ethical committee via letter No. DREC-140/B. The food, water, and light/dark cycles provided to animals were observed by the ethical committee. The animals were euthanized as per the AVMA guidelines version 2020. The animals were subjected to slow exposure of halothane vapors to induce anesthesia. There was a gradual increase in the dosage of halothane vapors, which eventually euthanized the animals. […] Group 3: […] Group 4: […]

[2] = tested on: alloxan-induced diabetic rats; test: lipid profile (antilipidemic effect); assay type: in vivo; settings: NtSt01 1.0 mg/kg, glibenclamide 0.5 mg/kg; for LDL / S.Cholesterol: reference range 10–54; for S.Triglycerides: reference range 26–145; for HDL: reference range up to 50
Experimental: Standard methods were used for the analysis of total cholesterol, serum triglycerides, low-density lipoprotein (LDL), and high-density lipoprotein (HDL). Briefly, […] of serum sample was added to […] solution of triglyceride. The mixture was incubated for 10 min at 37 °C and the absorbance was recorded at 546 nm. To monitor blood cholesterol, diagnostic kits were utilized following the specifications of the manufacturer. […] For HDL concentration determination, 200 µL of serum sample and 500 µL of HDL solution were combined, and the mixture was allowed to stand at room temperature for 5 min. Again, the mixture was mixed and subjected to further centrifugation for 5 min, followed by supernatant collection. Then, 50 µL of supernatant of HDL was added to 500 µL of solution of cholesterol; the mixture was incubated at 37 °C for 5 min. Then, at 546 nm, the sample absorbance was measured. Similarly, LDL was determined in all groups following the manufacturer’s specifications. LDL = Total cholesterol […] − Triglycerides/5(4)

[3] = tested on: alloxan-induced diabetic rats; test: renal and liver function tests (biochemical profile of blood); settings: NtSt01 1.0 mg/kg, standard glibenclamide; for S.Creatinine: reference range 0.4–0.8; for SGPT(ALT): reference range 17–30; for S.ALK.Phosphatase: reference range 30–130; for S.bilurubin: reference range up to 1.0
Experimental: Renal functions tests were performed to determine blood urea and serum creatinine [38]. To determine blood urea, enzyme reagent 1 (1000 µL) and 10 µL of serum were mixed together and incubated for 5 min at 25 °C, followed by the addition of 1000 µL of reagent 2 to the mixture. After 5 min, the absorbance was recorded at 578 nm.
Serum glutamate pyruvate transaminase (SGPT/ALT), alkaline phosphatase (ALP), and bilirubin tests were performed following standard protocols using micro lab 300 and tecno plus biochemistry analyzers [39]. To perform the SGPT/ALT test, 50 µL of serum sample was added to 500 µL of reagent (400 µL of reagent 1 and 100 µL of reagent 2). […] To determine ALP, a kit was used following the manufacturer’s specifications: 10 µL of serum sample was added to 500 µL of reagent (400 µL of reagent 1 and 100 µL of reagent 2). […] Similarly, the concentration of bilirubin was evaluated using standard protocols. Four types of reagents, R1, R2, R3, and R4, were used in this test. R2 (25 µL) was added to R1 (100 µL). After this, 100 µL of serum sample and 500 µL of R3 were added and allowed to stand at 25 °C for 5 min. Then, 500 µL of R4 was added; at 25 °C for 5 min, the mixture was incubated. The absorbance of the sample was recorded at 546 nm.

[4] = tested on: alloxan-induced diabetic rats; test: body weight of fasting rats during treatment; assay type: in vivo; settings: NtSt01 1.0 mg/kg, glibenclamide 0.5 mg/kg
Experimental: Group 3: This group was the alloxan-induced diabetic group, which was treated with 0.5 mg/kg of the standard drug, glibenclamide.
Group 4: This group was the alloxan-induced diabetic group, which was treated with 1.0 mg/kg of NtSt01 intraperitoneally.

α-glucosidase = α-glucosidase (Saccharomyces cerevisiae, UniProt P53341); test: in vitro α-glucosidase inhibition; assay type: biochemical
Sequence of α-glucosidase (P53341 whole entry): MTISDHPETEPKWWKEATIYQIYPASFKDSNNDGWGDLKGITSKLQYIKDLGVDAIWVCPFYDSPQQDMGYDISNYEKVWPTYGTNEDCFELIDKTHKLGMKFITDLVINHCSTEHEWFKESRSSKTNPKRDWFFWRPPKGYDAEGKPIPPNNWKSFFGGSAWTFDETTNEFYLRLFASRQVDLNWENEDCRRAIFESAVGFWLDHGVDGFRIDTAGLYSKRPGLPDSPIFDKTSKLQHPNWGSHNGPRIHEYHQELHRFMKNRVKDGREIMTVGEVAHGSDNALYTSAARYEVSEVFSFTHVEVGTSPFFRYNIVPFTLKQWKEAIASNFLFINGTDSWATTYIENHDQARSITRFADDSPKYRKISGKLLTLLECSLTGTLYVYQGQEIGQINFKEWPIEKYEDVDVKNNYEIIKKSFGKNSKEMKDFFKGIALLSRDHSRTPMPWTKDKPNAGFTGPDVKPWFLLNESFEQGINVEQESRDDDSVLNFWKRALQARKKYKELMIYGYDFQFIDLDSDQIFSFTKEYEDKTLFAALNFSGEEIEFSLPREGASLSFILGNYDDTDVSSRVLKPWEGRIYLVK
Experimental: The alpha-glucosidase inhibitory effects of our compounds were determined via a reported protocol. Sample dilutions (50 µL) and 100 µL of α-glucosidase solution (0.5 U/mL) were mixed. Then, 600 μL of phosphate buffer (0.1 M, pH 6.9) was added, and the mixture was incubated at 37 °C for 15 min. After this, 5 mM substrate (p-nitrophenyl α-D-glucopyranoside) solution (20 µL) in 0.1 M phosphate buffer (pH 6.9) was added and again incubated under the same conditions. Sodium carbonate was added to stop the reaction; at 405 nm, the absorbance was noted using a spectrophotometer. A mixture without α-glucosidase served as the blank, and a mixture without the test compound served as the control. The percent enzyme inhibition was calculated as:(1) % Alpha glucosidase inhibition=Control abs.−Sample abs./Control abs.×100

rats = test: acute toxicity study in rats; assay type: in vivo; settings: dose started at 200 and increased up to 2000 mg/kg body weight
Experimental: In experimental animals, acute toxicity studies were performed to determine the safe dose of our test compounds for in vivo studies.

α-amylase = test: in vitro α-amylase inhibition; assay type: biochemical
Experimental: The inhibitory activity of our compounds against alpha-amylase enzymes was determined as per the previously reported protocols. Test samples of 100 µL were mixed with an enzyme solution (200 µL) and 100 µL of phosphate buffer (pH 6.9, 2 mM). The mixture was then incubated at 25 °C for 20 min, followed by the addition of 100 µL of starch solution (1%). The same procedure was followed for positive controls, where phosphate buffer was added instead of […] (200 µL). After 5 min of incubation, 3,5-dinitrosalicylic acid reagent (500 µL) was added to the test samples and control group. The mixtures were incubated again for 10 min; at 580 nm, the absorbance was recorded using a spectrophotometer. The alpha-amylase percent inhibition was calculated as:(2) % Amylase inhibition=1−Test sample abs./Control abs.×100

[5] = DPPH free radical scavenging assay
Experimental: To evaluate the antioxidant potential of our compounds, the DPPH free radical scavenging assay developed by Brand William was used. The DPPH solution was made by dissolving 20 mg of DPPH in 100 mL of methanol, and its absorbance at 517 nm was adjusted to 0.75. Then, 2 mL of DPPH solution was added to 2 mL of sample dilutions ranging from 31.25 to 500 µg/mL, and the mixture was incubated at room temperature in the dark for 15 min. […] (3) % Inhibition=Control abs.−Sample abs./Control abs.×100

Row | Structure (SMILES) | Heart weight [1] [g] | Kidney weight [1] [g] | Liver weight [1] [g] | Pancreas weight [1] [g] | LDL [2] | S.Cholesterol [2] | S.Triglycerides [2] | HDL [2] | S.Creatinine [3] [mg/dL] | SGPT(ALT) [3] [U/L] | S.ALK.Phosphatase [3] [U/L] | S.bilurubin [3] [mg/dL] | body weight ([4]; Day 1) [g] | body weight ([4]; Day 7) [g] | body weight ([4]; Day 14) [g] | body weight ([4]; Day 21) [g] | body weight ([4]; Day 28) [g] | Percent Inhibition (Mean ± SEM) (α-amylase; 31.25 μg/mL) [%] | Percent Inhibition (Mean ± SEM) (α-amylase; 62.50 μg/mL) [%] | Percent Inhibition (Mean ± SEM) (α-amylase; 500 μg/mL) [%] | other results
1 | COc1ccc(Cl)cc1C(=O)NCCc1ccc(S(=O)(=O)NC(=O)NC2CCCCC2)cc1 [Glibenclamide, glibenclamide, reference compound] | 0.90 ± 0.02 | 0.99 ± 0.16 | 9.21 ± 0.66 | 0.84 ± 0.21 | 34.16 ± 2.66 | 59.98 ± 0.99 | 112 ± 0.99 | 32.55 ± 2.35 | 0.43 ± 0.01 | 37 ± 1.11 | 125 ± 1.22 | 0.81 ± 0.03 | 235 ± 1.36 | 236 ± 1.37 | 239 ± 0.67 | 244 ± 2.38 | 249 ± 3.18 |  |  |  | 
2 | CCC(C=CC(C)C1CCC2C3C=CC4=CC(OC(C)=O)CCC4(C)C3CCC12C)C(C)C (stereo not drawn) [NtSt01, 3-β-Acetoxystigmasta-4,6,22-triene] | 1.04 ± 0.13 | 1.01 ± 0.15 | 9.83 ± 0.92 | 0.92 ± 0.12 | 48.85 ± 1.08 | 77.45 ± 1.72 | 125 ± 3.65 | 38.10 ± 1.64 | 0.6 ± 0.02 | 32 ± 0.25 | 134 ± 2.33 | 0.72 ± 0.77 | 238 ± 0.33 | 240 ± 0.49 | 242 ± 1.04 | 245 ± 1.11 | 246 ± 0.11 | 62.35 ± 1.78 | 67.63 ± 2.51 | 80.03 ± 2.11 | potency relative to NtSt02 (from IC50 values) (α-glucosidase; α-glucosidase): three times more potent than NtSt02; acute toxicity observation (rats): safe and no morbidity, mortality or irritation was observed; Percent Inhibition (Mean ± SEM) (α-amylase; 125 μg/mL): 71.63 ± 0.92%; Percent Inhibition (Mean ± SEM) (α-amylase; 250 μg/mL): 75.52 ± 0.96%; IC50 (α-amylase; α-amylase): 4.17 µg/mL (≈ 9.21 µM); potency relative to NtSt02 (from IC50 values) (α-amylase; α-amylase): eleven folds more potent than NtSt02; IC50 [5]: 142.76 µg/mL (≈ 315 µM); Percent Inhibition (Mean ± SEM) ([5]; 31.25 μg/mL): 37.25 ± 2.66%; Percent Inhibition (Mean ± SEM) ([5]; 62.50 μg/mL): 42.53 ± 0.69%; Percent Inhibition (Mean ± SEM) ([5]; 125 μg/mL): 47.08 ± 2.41%; Percent Inhibition (Mean ± SEM) ([5]; 250 μg/mL): 55.79 ± 0.92%; Percent Inhibition (Mean ± SEM) ([5]; 500 μg/mL): 61.05 ± 2.05%
3 | CC(C)CCC[C@@H](C)[C@H]1CC[C@H]2[C@@H]3C=CC4=C[C@@H](OC(=O)c5ccccc5)CC[C@]4(C)[C@H]3CC[C@]12C [NtSt02, 4,6-cholestadien-3beta-ol, benzoate] |  |  |  |  |  |  |  |  |  |  |  |  |  |  |  |  |  | 46.84 ± 0.67 | 53.10 ± 2.05 | 74.99 ± 1.53 | Percent Inhibition (Mean ± SEM) (α-amylase; 125 μg/mL): 60.04 ± 0.86%; Percent Inhibition (Mean ± SEM) (α-amylase; 250 μg/mL): 64.32 ± 1.85%; IC50 (α-amylase; α-amylase): 46.73 µg/mL (≈ 95.6 µM); IC50 [5]: 223.43 µg/mL (≈ 457 µM); Percent Inhibition (Mean ± SEM) ([5]; 31.25 μg/mL): 28.52 ± 2.63%; Percent Inhibition (Mean ± SEM) ([5]; 62.50 μg/mL): 33.08 ± 1.17%; Percent Inhibition (Mean ± SEM) ([5]; 125 μg/mL): 42.99 ± 2.70%; Percent Inhibition (Mean ± SEM) ([5]; 250 μg/mL): 52.01 ± 1.07%; Percent Inhibition (Mean ± SEM) ([5]; 500 μg/mL): 59.12 ± 1.96%
4 | C[C@H]1O[C@H](O[C@H]2[C@H](O)[C@@H](O)[C@@H](O[C@H]3[C@H](O)[C@@H](O)C(O)O[C@@H]3CO)O[C@@H]2CO)[C@H](O)[C@@H](O)[C@@H]1N[C@H]1C=C(CO)[C@@H](O)[C@H](O)[C@H]1O (stereo partly drawn) [acarbose, reference compound] |  |  |  |  |  |  |  |  |  |  |  |  |  |  |  |  |  |  |  | 91.01 ± 1.36 | Percent Inhibition (Mean ± SEM) (α-glucosidase): 92.65 ± 0.55%
